Where two headings read alike, the source gives them in different places. Values belong to the compound of their own block, whether it stands above or below them.
Legend:
patients with NASH [1] = details: cited from earlier work
patients with NASH [2] = details: cited from earlier work; remark: listed apart in the source
PPARγ = molecular target: T1, PPARγ (Homo sapiens, UniProt P37231); test: Relative binding affinity for PPARγ (FIG. 7)
T1 sequence (P37231 1-505): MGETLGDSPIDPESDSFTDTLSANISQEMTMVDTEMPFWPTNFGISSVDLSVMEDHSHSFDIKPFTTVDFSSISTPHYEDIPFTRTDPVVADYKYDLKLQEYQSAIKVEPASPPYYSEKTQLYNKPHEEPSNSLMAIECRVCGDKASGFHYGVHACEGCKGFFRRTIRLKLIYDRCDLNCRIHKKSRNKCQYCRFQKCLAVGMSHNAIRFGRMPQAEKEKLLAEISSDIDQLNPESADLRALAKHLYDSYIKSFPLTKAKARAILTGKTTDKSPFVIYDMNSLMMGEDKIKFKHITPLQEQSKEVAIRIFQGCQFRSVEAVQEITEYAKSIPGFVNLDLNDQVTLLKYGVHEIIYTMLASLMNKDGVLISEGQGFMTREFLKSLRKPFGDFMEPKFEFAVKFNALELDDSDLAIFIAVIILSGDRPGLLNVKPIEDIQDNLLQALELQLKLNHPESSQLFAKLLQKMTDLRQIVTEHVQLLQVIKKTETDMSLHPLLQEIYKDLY

MPC = molecular target: T2, MPC (Homo sapiens, UniProt O95563+Q9Y5U8); test: Relative binding affinity for the MPC (FIG. 8)
T2 sequence (Q9Y5U8 1-109): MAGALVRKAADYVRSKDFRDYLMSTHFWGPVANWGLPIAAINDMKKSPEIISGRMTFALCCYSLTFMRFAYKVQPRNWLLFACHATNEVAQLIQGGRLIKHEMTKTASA
T2 sequence (O95563 1-127): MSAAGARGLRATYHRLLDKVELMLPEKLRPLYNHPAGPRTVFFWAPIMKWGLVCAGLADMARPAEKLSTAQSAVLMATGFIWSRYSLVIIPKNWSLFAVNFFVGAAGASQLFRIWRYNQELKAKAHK

[3] = Exposure of parent and metabolite; bioavailability of potassium salt vs free acid; details: in vivo
[4] = CENTAUR, 150 mg, follow-up 12 months
[5] = LEUSCHNER trial, UDCA 23-28 mg/kg/day
[6] = LEUSCHNER, 23-28 mg/kg/day, follow-up 18 months
[7] = GEORGESCU trial, Valsartan 80 mg
[8] = GEORGESCU, 80 mg, follow-up 20 months
[9] = ENCORE-HF trial, Emricasan 5 mg
[10] = ENCORE-HF trial, Emricasan 50 mg
[11] = GEORGESCU trial, Telmisartan 20 mg
[12] = GEORGESCU, 20 mg, follow-up 20 months

SMILES: CCCCOCCOc1ccc(-c2ccc3c(c2)/C=C(/C(=O)Nc2ccc([S@@+]([O-])Cc4cncn4CCC)cc2)CCCN3CC(C)C)cc1 [Cenicriviroc]
Fibrosis Improvement (patients with NASH [1]; CENTAUR trial, Cenicriviroc 150 mg): 29/145
% Change from Baseline ALT (patients with NASH [2]; [4]): 11.23%
% Change from Baseline AST (patients with NASH [2]; [4]): 11.67%
% Change from Baseline Alk Phos (patients with NASH [2]; [4]): 1.24%
% Change from Baseline CK-18 (patients with NASH [2]; [4]): −12.34%
% Change from Baseline GGT (patients with NASH [2]; [4]): 2.68%
% Change from Baseline HbA1c (patients with NASH [2]; [4]): −0.75%
% Change from Baseline Insulin (patients with NASH [2]; [4]): 2.14%

SMILES: C[C@H](CCC(=O)O)[C@H]1CC[C@H]2[C@@H]3[C@@H](O)C[C@@H]4C[C@H](O)CC[C@]4(C)[C@H]3CC[C@]12C [UDCA]
Change from Baseline, mean: Ballooning (patients with NASH [1]; [5]): −0.16
Change from Baseline, mean: Inflammation (patients with NASH [1]; [5]): −0.51
Change from Baseline, mean: Steatosis (patients with NASH [1]; [5]): −0.55
% Change from Baseline ALT (patients with NASH [2]; [6]): −40.55%
% Change from Baseline AST (patients with NASH [2]; [6]): −27.95%
% Change from Baseline Alk Phos (patients with NASH [2]; [6]): −6.376%
% Change from Baseline GGT (patients with NASH [2]; [6]): −59.94%

reduction in binding affinity for PPARγ compared to pioglitazone (PPARγ): more than fifty-fold
binding to the MPC (MPC): maintain, and in some cases improve
share of the combined exposure [3]: more than 90%
SMILES: COc1cccc(C(O)COc2ccc(CC3SC(=O)NC3=O)cc2)c1 (centres unmarked) [primary metabolite of MSDC-0602]

SMILES: CCCCC(=O)N(Cc1ccc(-c2ccccc2-c2nnn[nH]2)cc1)[C@H](C(=O)O)C(C)C [Valsartan]
Change from Baseline, mean: Ballooning (patients with NASH [1]; [7]): −0.11
Change from Baseline, mean: Fibrosis (patients with NASH [1]; [7]): −0.31
Change from Baseline, mean: Inflammation (patients with NASH [1]; [7]): 0.08
Change from Baseline, mean: Steatosis (patients with NASH [1]; [7]): −0.34
% Change from Baseline ALT (patients with NASH [2]; [8]): −23.22%
% Change from Baseline AST (patients with NASH [2]; [8]): −18.82%
% Change from Baseline GGT (patients with NASH [2]; [8]): −20.60%

SMILES: C[C@H](NC(=O)C(=O)Nc1ccccc1C(C)(C)C)C(=O)N[C@@H](CC(=O)O)C(=O)COc1c(F)c(F)cc(F)c1F [Emricasan]
Change from Baseline, mean: Ballooning (patients with NASH [1]; [9]): 0.04
Change from Baseline, mean: Fibrosis (patients with NASH [1]; [9]): 0.41
Change from Baseline, mean: Inflammation (patients with NASH [1]; [9]): −0.11
Change from Baseline, mean: Steatosis (patients with NASH [1]; [9]): −0.20
Fibrosis Improvement (patients with NASH [1]; [9]): 12/107
NASH Resolution (patients with NASH [1]; [9]): 4/107
Change from Baseline, mean: Ballooning (patients with NASH [1]; [10]): 0.13
Change from Baseline, mean: Fibrosis (patients with NASH [1]; [10]): 0.36
Change from Baseline, mean: Inflammation (patients with NASH [1]; [10]): 0.09
Change from Baseline, mean: Steatosis (patients with NASH [1]; [10]): −0.27
Fibrosis Improvement (patients with NASH [1]; [10]): 13/106
NASH Resolution (patients with NASH [1]; [10]): 7/106
% Change from Baseline ALT (patients with NASH [2]; ENCORE-HF, 5 mg): −35.28%
% Change from Baseline AST (patients with NASH [2]; ENCORE-HF, 5 mg): −18.47%
% Change from Baseline CK-18 (patients with NASH [2]; ENCORE-HF, 5 mg): −36.86%
% Change from Baseline ALT (patients with NASH [2]; ENCORE-HF, 50 mg): −45.17%
% Change from Baseline AST (patients with NASH [2]; ENCORE-HF, 50 mg): −19.83%
% Change from Baseline CK-18 (patients with NASH [2]; ENCORE-HF, 50 mg): −45.07%

SMILES: CCCc1nc2c(C)cc(-c3nc4ccccc4n3C)cc2n1Cc1ccc(-c2ccccc2C(=O)O)cc1 [Telmisartan]
Change from Baseline, mean: Ballooning (patients with NASH [1]; [11]): −0.58
Change from Baseline, mean: Fibrosis (patients with NASH [1]; [11]): −0.75
Change from Baseline, mean: Inflammation (patients with NASH [1]; [11]): −0.36
Change from Baseline, mean: Steatosis (patients with NASH [1]; [11]): −0.50
% Change from Baseline ALT (patients with NASH [2]; [12]): −30.29%
% Change from Baseline AST (patients with NASH [2]; [12]): −34.64%
% Change from Baseline GGT (patients with NASH [2]; [12]): −2.83%
